Legend:
Conditions in all cases: 2 µM
[1] = The drug is tested on Collinsella aerofaciens strain: ATCC25986 for biotransformation. The drug concentrations were measured before and after a 12-h incubation by liquid-chromatography-coupled mass spectrometry (LC–MS)
[2] = The drug is tested on Eggerthella lenta strain: ATCC25559 for biotransformation. The drug concentrations were measured before and after a 12-h incubation by liquid-chromatography-coupled mass spectrometry (LC–MS)
[3] = The drug is tested on Bacteroides coprophilus strain: DSM18228 for biotransformation. The drug concentrations were measured before and after a 12-h incubation by liquid-chromatography-coupled mass spectrometry (LC–MS)
[4] = The drug is tested on Escherichia coli strain: BW25113 for biotransformation. The drug concentrations were measured before and after a 12-h incubation by liquid-chromatography-coupled mass spectrometry (LC–MS)
[5] = The drug is tested on Ruminococcus lactaris strain: ATCC29176 for biotransformation. The drug concentrations were measured before and after a 12-h incubation by liquid-chromatography-coupled mass spectrometry (LC–MS)
[6] = The drug is tested on Subdoligranulum variabile strain: DSM15176 for biotransformation. The drug concentrations were measured before and after a 12-h incubation by liquid-chromatography-coupled mass spectrometry (LC–MS)

SMILES	Bacterial Biotransformation [1]	Bacterial Biotransformation [2]	Bacterial Biotransformation [3]	Bacterial Biotransformation [4]	Bacterial Biotransformation [5]	Bacterial Biotransformation [6]
CN1CCc2c(c3ccccc3n2Cc2ccccc2)C1.CN1CCc2c(c3ccccc3n2Cc2ccccc2)C1.O=S(=O)(O)c1cccc2c(S(=O)(=O)O)cccc12	Compound NOT metabolized	Compound NOT metabolized	Compound NOT metabolized	Compound NOT metabolized	–	–
CN1CCC(OC(c2ccccc2)c2ccccc2)CC1	Compound NOT metabolized	–	Compound NOT metabolized	Compound NOT metabolized	Compound NOT metabolized	Compound NOT metabolized
Br.COc1ccc2c(c1)[C@]13CCCC[C@@H]1[C@H](C2)N(C)CC3.O [DEXTROMETHORPHAN HYDROBROMIDE]	Compound NOT metabolized	–	Compound NOT metabolized	Compound NOT metabolized	Compound NOT metabolized	Compound NOT metabolized
C[C@H]1O[C@@H](O[C@H]2[C@@H](O)C[C@H](O[C@H]3[C@@H](O)C[C@H](O[C@H]4CC[C@@]5(C)[C@H](CC[C@@H]6[C@@H]5C[C@@H](O)[C@]5(C)[C@@H](C7=CC(=O)OC7)CC[C@]65O)C4)O[C@@H]3C)O[C@@H]2C)C[C@H](O)[C@@H]1O [DIGOXIN]	Compound NOT metabolized	–	Compound metabolized	Compound NOT metabolized	Compound NOT metabolized	Compound NOT metabolized
O=C(Nc1ccccc1)OCC(CN1CCCCC1)OC(=O)Nc1ccccc1 (centres undefined) [DIPERODON]	Compound NOT metabolized	–	Compound NOT metabolized	Compound NOT metabolized	Compound NOT metabolized	–
OCCN(CCO)c1nc(N2CCCCC2)c2nc(N(CCO)CCO)nc(N3CCCCC3)c2n1 [DIPYRIDAMOLE]	Compound NOT metabolized	Compound NOT metabolized	Compound NOT metabolized	Compound NOT metabolized	–	–
CC(C)N(CCC(C(N)=O)(c1ccccc1)c1ccccn1)C(C)C.O=P(O)(O)O (centres undefined) [DISOPYRAMIDE PHOSPHATE]	Compound NOT metabolized	–	Compound NOT metabolized	–	Compound NOT metabolized	Compound NOT metabolized
CN(C)CCC=C1c2ccccc2COc2ccccc21 [DOXEPIN]	Compound NOT metabolized	–	Compound NOT metabolized	Compound NOT metabolized	Compound NOT metabolized	Compound NOT metabolized
CCN(CC)C(C)CN1c2ccccc2Sc2ccccc21 (centres undefined) [ETHOPROPAZINE]	Compound NOT metabolized	–	Compound NOT metabolized	Compound metabolized	Compound NOT metabolized	Compound NOT metabolized
O=C1[C@H](CC[C@H](O)c2ccc(F)cc2)[C@@H](c2ccc(O)cc2)N1c1ccc(F)cc1 [EZETIMIBE]	Compound NOT metabolized	–	Compound NOT metabolized	Compound NOT metabolized	Compound NOT metabolized	Compound NOT metabolized
CC(C)c1c(CN(C)C(C)Cc2ccccc2)n(C)n(-c2ccccc2)c1=O (centres undefined) [FAMPROFAZONE]	Compound metabolized	–	Compound metabolized	Compound NOT metabolized	Compound NOT metabolized	Compound metabolized
O=C1NCC2(CCN(CCc3ccccc3)CC2)O1 [FENSPIRIDE]	Compound NOT metabolized	–	Compound metabolized	Compound NOT metabolized	Compound NOT metabolized	–
COCCCC/C(=N\OCCN)c1ccc(C(F)(F)F)cc1.O=C(O)/C=C\C(=O)O [FLUVOXAMINE MALEATE]	Compound NOT metabolized	–	Compound metabolized	Compound NOT metabolized	Compound NOT metabolized	Compound NOT metabolized
COc1ccc2c3c1O[C@H]1C[C@@H](O)C=C[C@@]31CCN(C)C2 [GALANTAMINE]	Compound NOT metabolized	–	Compound metabolized	Compound NOT metabolized	Compound NOT metabolized	–
Nc1nc(N)nc(-c2cc(Cl)ccc2Cl)n1.O=C(O)/C=C\C(=O)O [IRSOGLADINE MALEATE]	Compound NOT metabolized	–	Compound NOT metabolized	–	Compound NOT metabolized	Compound NOT metabolized
Nc1nnc(-c2cccc(Cl)c2Cl)c(N)n1 [LAMOTRIGINE]	Compound NOT metabolized	–	Compound NOT metabolized	Compound NOT metabolized	Compound NOT metabolized	–
CN1C(=O)CC(C)(c2ccccc2)C1=O (centres undefined) [METHSUXIMIDE]	Compound NOT metabolized	–	Compound NOT metabolized	Compound metabolized	–	Compound NOT metabolized
CN1CCN2c3ccccc3Cc3ccccc3C2C1 (centres undefined) [MIANSERIN]	Compound NOT metabolized	–	Compound NOT metabolized	Compound NOT metabolized	Compound NOT metabolized	–
CC(C)[C@H]1CC[C@H](C(=O)N[C@H](Cc2ccccc2)C(=O)O)CC1 [NATEGLINIDE]	Compound NOT metabolized	–	Compound NOT metabolized	Compound NOT metabolized	Compound NOT metabolized	–
CN1CCOC(c2ccccc2)c2ccccc2C1 (centres undefined) [NEFOPAM]	Compound NOT metabolized	–	Compound NOT metabolized	–	Compound NOT metabolized	Compound NOT metabolized
Cc1ccnc2c1NC(=O)c1cccnc1N2C1CC1 [NEVIRAPINE]	Compound NOT metabolized	–	Compound NOT metabolized	–	Compound NOT metabolized	Compound NOT metabolized
Cc1ccccc1C(OCCN(C)C)c1ccccc1.O=C(O)CC(O)(CC(=O)O)C(=O)O (centres undefined) [ORPHENADRINE CITRATE]	Compound NOT metabolized	–	Compound NOT metabolized	–	Compound NOT metabolized	Compound NOT metabolized
O=C(O)CCc1nc(-c2ccccc2)c(-c2ccccc2)o1 [OXAPROZIN]	Compound NOT metabolized	–	Compound NOT metabolized	–	Compound NOT metabolized	Compound NOT metabolized
Fc1ccc([C@@H]2CCNC[C@H]2COc2ccc3c(c2)OCO3)cc1 [PAROXETINE]	Compound NOT metabolized	–	Compound NOT metabolized	Compound NOT metabolized	Compound NOT metabolized	–
CC(=O)CCCCn1c(=O)c2c(ncn2C)n(C)c1=O [PENTOXIFYLLINE]	Compound NOT metabolized	–	Compound NOT metabolized	Compound NOT metabolized	Compound NOT metabolized	Compound NOT metabolized

Reference: ChEMBL document CHEMBL5303573, “Mapping human microbiome drug metabolism by gut bacteria and their genes” (Nature, 2019)
